Test results reported in PubChem BioAssay (NCI).
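These data come from cells grown in 96-well plates and exposed to compound for 48 hours at five concentrations. GI50 = concentration required for 50% inhibition of growth. TGI marks complete inhibition of growth.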

Legend:
Experiment in all cases: DTP human tumour cell line panel, 48 h
[1] = system: HCT-116 colon
[2] = system: COLO 205 colon
[3] = system: UO-31 renal
[4] = system: SK-OV-3 ovarian
[5] = system: OVCAR-8 ovarian
[6] = system: HOP-92 NSCLC
[7] = system: HOP-62 NSCLC
[8] = system: TK-10 renal
[9] = system: MDA-MB-231 breast
[10] = system: MCF7 breast

Structure (SMILES) | TGI [1] | TGI [2] | TGI [3] | TGI [4] | TGI [5] | TGI [6] | TGI [7] | TGI [8] | TGI [9] | TGI [10] | GI50 [2] | GI50 [3] | GI50 [4] | GI50 [6] | GI50 [7] | GI50 [8] | GI50 [9]
O=C(O)Cc1ccc(Oc2nc3ccccc3nc2-c2cccs2)cc1 | > 100 µM | 80.1 µM | > 100 µM | > 100 µM | > 100 µM | > 100 µM | > 100 µM | > 100 µM | > 100 µM | > 100 µM |  |  |  |  |  |  | 
COC(c1ccsc1)C(C#N)(C#N)N=Cc1ccsc1 (stereo unspecified) | 25.4 µM | 33.1 µM | 26.2 µM | 59.1 µM | 49.9 µM | 27.1 µM | 34.8 µM | 36.2 µM | 21.3 µM | 15.6 µM |  |  |  |  |  |  | 
C=CCNC1=C2C[C@@H](C)C[C@@H](OC)C(OC(=O)CCCN(C)C)[C@H](C)/C=C(\C)[C@@H](OC(N)=O)[C@H](OC)/C=C\C=C(/C)C(=O)NC(=CC1=O)C2=O (stereo partly specified) | 20.4 µM | 6.5 µM | 26.6 µM | 12.6 µM | 16 µM | 34.9 µM | 21.5 µM | 25.1 µM | 17.5 µM | 12.1 µM |  |  |  |  |  |  | 
COc1ccc2c(c1)OCC1(O)Cc3ccccc3OC21 (stereo unspecified) | > 100 µM | > 100 µM | > 100 µM | > 100 µM | > 100 µM | > 100 µM | > 100 µM | > 100 µM | > 100 µM | > 100 µM |  |  |  |  |  |  | 
COc1cc2c(cc1OC)C1CN3C(=O)CCC3C(O)C1c1cc(OC)c(OC)cc1-2 (stereo unspecified) | > 100 µM | > 100 µM | > 100 µM | > 100 µM | > 100 µM | > 100 µM | > 100 µM | > 100 µM | > 100 µM | > 100 µM |  |  |  |  |  |  | 
Brc1ccc2c(-c3nc(-c4c[nH]c5ccccc45)cs3)c[nH]c2c1 | > 100 µM | > 79.7 µM | > 100 µM | > 100 µM | > 100 µM | > 100 µM | > 100 µM | 45.8 µM | > 89.4 µM | > 100 µM |  |  |  |  |  |  | 
Cc1cc(NS(=O)(=O)c2ccc(NC(=O)c3ccc4nc5ccccc5c(Nc5ccc(S(=O)(=O)N=C(N)N)cc5)c4c3)cc2)no1 | 35.6 µM | 38.5 µM | 32.1 µM | 41.6 µM | 32.9 µM | 67.6 µM | 35.8 µM | 41.4 µM | 29.4 µM | 36.4 µM |  |  |  |  |  |  | 
Cc1c(CNc2ccc(Cl)c(C(=O)NC(CC(=O)O)C(=O)O)c2)ccc2nc(N)nc(N)c12 (stereo unspecified) | > 1000 µM | > 1000 µM | > 1000 µM | > 1000 µM | > 1000 µM | > 1000 µM |  | > 1000 µM | > 1000 µM | > 1000 µM | 114 µM | 1.86 µM | 800 µM | 288 µM | 0.557 µM | 363 µM | > 1000 µM
Cc1ccccc1N=C(N)NC#N | > 100 µM | > 100 µM | > 100 µM | > 100 µM | > 100 µM | > 100 µM | > 100 µM | > 100 µM | > 100 µM | > 100 µM |  |  |  |  |  |  | 
CC(=O)N1N=C(c2c(O)ccc3ccccc23)CC1C(=O)c1ccco1 (stereo unspecified) | 50.3 µM | 86 µM | > 100 µM | > 100 µM | > 100 µM | > 100 µM | > 100 µM | > 100 µM | 74.6 µM | 47.7 µM |  |  |  |  |  |  | 
COc1c2occc2c(OC)c2c(=O)c(S(=O)(=O)NC(=O)Nc3ccc(Cl)cc3)coc12 | > 10 µM | > 10 µM | > 10 µM | > 10 µM | > 10 µM | > 10 µM | > 10 µM | > 10 µM | > 10 µM | > 10 µM |  |  |  |  |  |  | 
COCn1c2ccc(OC(C)=O)cc2c2c(=O)oc(C)nc21 | > 100 µM | > 100 µM | > 100 µM | > 100 µM | > 100 µM | > 100 µM | > 100 µM | > 100 µM | > 100 µM | > 100 µM |  |  |  |  |  |  | 
COc1ccc(/C=N\N2CC(=O)N3C4C=CC(CC4)N3C2=O)cc1 (stereo unspecified) | > 100 µM | > 100 µM | > 100 µM | > 100 µM | > 100 µM | > 100 µM | > 100 µM | > 100 µM | > 100 µM | > 100 µM |  |  |  |  |  |  | 
CCNC(=S)N/N=C/c1cc(OC)ccc1O | > 100 µM | > 100 µM | > 100 µM | > 100 µM | > 100 µM | > 100 µM | > 100 µM | > 100 µM | > 100 µM | > 100 µM |  |  |  |  |  |  | 
O=C(NCC1Nc2ccncc2S(=O)(=O)N1)c1ccc(Br)cc1 (stereo unspecified) | > 100 µM | > 100 µM | > 100 µM | > 100 µM | > 100 µM | > 100 µM | > 100 µM | > 100 µM | > 100 µM | > 100 µM |  |  |  |  |  |  | 
CCCCC/C=C1/CC(CO)(COC(=O)CC(C(C)C)C(C)C)OC1=O (stereo unspecified) | 28 µM | 14.7 µM | 24.1 µM | 40.4 µM | 31 µM | 21.5 µM | 20.7 µM | 32.5 µM | 32.5 µM | 31.8 µM |  |  |  |  |  |  | 
COc1cc(C2c3cc4c(cc3C(O)C3CCC(=O)N23)OCO4)cc(OC)c1OC (stereo unspecified) | > 100 µM | > 100 µM | 71.2 µM | > 100 µM | > 100 µM | > 100 µM | > 100 µM | > 100 µM | > 100 µM | 81 µM |  |  |  |  |  |  | 
